# Source: EPA's ToxRefDB 2
# Experiments:
# [1] = tested on: rat; settings: Subchronic oral toxicity in rodents, other, Feed, dose end: 90 day, group: systemic
# [2] = tested on: mouse; settings: Carcinogenicity; b6c3f1; Oral; Gavage/Intubation; dose end: 2 year; group: systemic; systemic / in life observation / body weight / body weight + systemic / in life observation / clinical signs / [other] + systemic / in life …
# [3] = tested on: mouse; settings: Subchronic oral toxicity in rodents, b6c3f1, Gavage/Intubation, dose end: 13 week, group: systemic
# [4] = tested on: rat; settings: Multigenerational reproductive toxicity study, sprague dawley, Oral, Water, dose end: 2 generation, group: parental
# [5] = tested on: rat; settings: Subchronic oral toxicity in rodents, fischer, Gavage/Intubation, dose end: 13 week, group: systemic
# [6] = tested on: rat; settings: Prenatal developmental toxicity study; sprague dawley; Oral; Gavage/Intubation; dose end: 15 GD; group: maternal; systemic / in life observation / body weight / body weight gain
# [7] = tested on: rat; settings: Combined chronic toxicity/carcinogenicity; fischer; Oral; Gavage/Intubation; dose end: 2 year; group: systemic; systemic / in life observation / clinical signs / ataxia + systemic / in life observation / clinical signs / prostration + systemic / in …
# [8] = tested on: rat; settings: Carcinogenicity, fischer, Oral, Feed, dose end: 78 week, group: systemic
# [9] = tested on: mouse; settings: Carcinogenicity, b6c3f1, Oral, Feed, dose end: 78 week, group: systemic
# [10] = tested on: rat; settings: Sub-acute repeat dose toxicity, sprague dawley, Oral, Gavage/Intubation, dose end: 5 day, group: systemic
# [11] = tested on: dog; settings: Sub-acute repeat dose toxicity, beagle, Oral, Gavage/Intubation, dose end: 5 day, group: systemic
# [12] = tested on: dog; settings: Sub-acute repeat dose toxicity, beagle, Oral, Gavage/Intubation, dose end: 7 day, group: systemic
# [13] = tested on: rat; settings: Carcinogenicity, fischer, Oral, Feed, dose end: 103 week, group: systemic
# [14] = tested on: mouse; settings: Carcinogenicity, b6c3f1, Oral, Feed, dose end: 103 week, group: systemic
# [15] = tested on: rat; settings: Subchronic oral toxicity in rodents, fischer, Feed, dose end: 13 week, group: systemic
# [16] = tested on: mouse; settings: Subchronic oral toxicity in rodents, b6c3f1, Feed, dose end: 13 week, group: systemic
# [17] = tested on: rat; settings: Subchronic oral toxicity in rodents, fischer, Feed, dose end: 90 day, group: systemic, systemic / in life observation / body weight / body weight gain + systemic / pathology microscopic / kidney / calculus + systemic / …
# [18] = tested on: mouse; settings: Subchronic oral toxicity in rodents, b6c3f1, Feed, dose end: 90 day, group: systemic
# [19] = tested on: rat; settings: Developmental neurotoxicity study, sprague dawley, Inhalation, Whole-Body, dose end: 2 generation, group: cannot be grouped
# [20] = systemic / hematology / erythrocyte (rbc) count differential / erythrocyte (rbc) + systemic / hematology / hemoglobin (hgb) / hemoglobin (…
# [21] = systemic / organ weight / adrenal gland / absolute + systemic / organ weight / adrenal gland / relative to body weight
# [22] = systemic / organ weight / adrenal gland / absolute + systemic / organ weight / adrenal gland / relative to body weight + systemic / in life …
# [23] = systemic / in life observation / body weight / body weight gain + systemic / in life observation / water consumption / water consumption + …
# [24] = systemic / in life observation / clinical signs / tremors + systemic / in life observation / mortality / mortality + systemic / organ weight…
# [25] = systemic / in life observation / body weight / body weight
# [26] = systemic / in life observation / body weight / body weight + systemic / pathology microscopic / liver / adenoma/carcinoma combined + …
# [27] = systemic / in life observation / body weight / body weight + systemic / in life observation / clinical signs / [other] + systemic / in life …
# [28] = systemic / in life observation / body weight / body weight + systemic / in life observation / food consumption / food consumption + systemic…
# [29] = systemic / in life observation / clinical signs / abnormal feces
# [30] = systemic / in life observation / clinical signs / abnormal feces + systemic / in life observation / clinical signs / emesis
# [31] = systemic / in life observation / clinical signs / erythema + systemic / in life observation / clinical signs / prostration + systemic / in …
# [32] = systemic / in life observation / clinical signs / erythema + systemic / in life observation / clinical signs / salivation
# [33] = systemic / in life observation / body weight / body weight gain + systemic / pathology gross / thyroid gland / enlarged
# [34] = systemic / in life observation / body weight / body weight gain + systemic / pathology gross / thyroid gland / enlarged + systemic / …
# [35] = systemic / in life observation / body weight / body weight gain
# [36] = systemic / in life observation / body weight / body weight gain + systemic / pathology microscopic / harderian gland / adenoma + systemic / …
# [37] = systemic / in life observation / body weight / body weight + systemic / in life observation / body weight / body weight gain + systemic / in…
# [38] = systemic / pathology microscopic / thyroid gland / hyperplasia
# [39] = systemic / in life observation / body weight / body weight gain + systemic / pathology microscopic / thyroid gland / hyperplasia + systemic…
structure (smiles),measurement,setting,value
CNc1ccccc1C(=O)OC [Methyl 2-(methylamino)benzoate],LOAEL,[1]; [20],> 244 mg/kg/day
same,NEL,[1]; [20],21 mg/kg/day
same,NOAEL,[1]; [20],≥ 244 mg/kg/day
same,LEL,[1]; systemic / hematology / leukocyte (wbc) count differential / leukocyte (wbc) + systemic / organ weight / kidney / absolute + systemic / …,82 mg/kg/day
Oc1cccc(O)c1 [Resorcinol],LEL,[2],225 mg/kg/day
same,LOAEL,[2],225 mg/kg/day
same,NEL,[2],112 mg/kg/day
same,NOAEL,[2],112 mg/kg/day
same,LEL,[3]; [21],28 mg/kg/day
same,NEL,[3]; [21],< 28 mg/kg/day
same,LOAEL,[3]; [22],> 420 mg/kg/day
same,NOAEL,[3]; [22],≥ 420 mg/kg/day
same,LOAEL,[4]; [23],> 233 mg/kg/day
same,NEL,[4]; [23],31 mg/kg/day
same,NOAEL,[4]; [23],≥ 233 mg/kg/day
same,LEL,[4]; systemic / in life observation / water consumption / water consumption,86 mg/kg/day
same,LOAEL,[5]; [24],> 520 mg/kg/day
same,NOAEL,[5]; [24],≥ 520 mg/kg/day
same,LEL,[5]; [21],32 mg/kg/day
same,NEL,[5]; [21],< 32 mg/kg/day
same,LEL,[6],500 mg/kg/day
same,LOAEL,[6],> 500 mg/kg/day
same,NEL,[6],250 mg/kg/day
same,NOAEL,[6],≥ 500 mg/kg/day
same,LEL,[7],100 mg/kg/day
same,LOAEL,[7],100 mg/kg/day
same,NEL,[7],50 mg/kg/day
same,NOAEL,[7],50 mg/kg/day
CN(C)c1ccc(C(=O)c2ccc(N(C)C)cc2)cc1 [Michler's ketone],LOAEL,[8]; [25],12.5 mg/kg/day
same,NOAEL,[8]; [25],< 12.5 mg/kg/day
same,LEL,[8]; [26],12.5 mg/kg/day
same,NEL,[8]; [26],< 12.5 mg/kg/day
same,LOAEL,[9]; [25],188 mg/kg/day
same,NOAEL,[9]; [25],< 188 mg/kg/day
same,LEL,[9]; [26],188 mg/kg/day
same,NEL,[9]; [26],< 188 mg/kg/day
COc1ccc(NC(=O)c2c[nH]c3c2C(=O)CCCC3)c(F)c1,LOAEL,[10]; [27],> 250 mg/kg/day
same,NOAEL,[10]; [27],≥ 250 mg/kg/day
same,LEL,[10]; [28],25 mg/kg/day
same,NEL,[10]; [28],< 25 mg/kg/day
same,LOAEL,[11]; [29],> 100 mg/kg/day
same,NOAEL,[11]; [29],≥ 100 mg/kg/day
same,LEL,[11]; [30],5 mg/kg/day
same,NEL,[11]; [30],< 5 mg/kg/day
same,LOAEL,[12]; [31],> 250 mg/kg/day
same,NOAEL,[12]; [31],≥ 250 mg/kg/day
same,LEL,[12]; [32],10 mg/kg/day
same,NEL,[12]; [32],< 10 mg/kg/day
"Nc1ccc(Oc2ccc(N)cc2)cc1 [4,4'-Oxydianiline]",LOAEL,[13]; [33],10 mg/kg/day
same,NOAEL,[13]; [33],< 10 mg/kg/day
same,LEL,[13]; [34],10 mg/kg/day
same,NEL,[13]; [34],< 10 mg/kg/day
same,LOAEL,[14]; [35],22.5 mg/kg/day
same,NOAEL,[14]; [35],< 22.5 mg/kg/day
same,LEL,[14]; [36],22.5 mg/kg/day
same,NEL,[14]; [36],< 22.5 mg/kg/day
same,LOAEL,[15]; [37],> 168 mg/kg/day
same,NOAEL,[15]; [37],≥ 168 mg/kg/day
same,LEL,[15]; [38],27 mg/kg/day
same,NEL,[15]; [38],< 27 mg/kg/day
same,LOAEL,[16]; [37],> 557 mg/kg/day
same,NEL,[16]; [37],68 mg/kg/day
same,NOAEL,[16]; [37],≥ 557 mg/kg/day
same,LEL,[16]; systemic / in life observation / body weight / body weight + systemic / in life observation / body weight / body weight gain + systemic / …,138 mg/kg/day
same,LEL,[17],30 mg/kg/day
same,LOAEL,[17],30 mg/kg/day
same,NEL,[17],15 mg/kg/day
same,NOAEL,[17],15 mg/kg/day
same,LEL,[18]; [35],45 mg/kg/day
same,NEL,[18]; [35],< 45 mg/kg/day
same,LOAEL,[18]; [39],90 mg/kg/day
same,NOAEL,[18]; [39],45 mg/kg/day
C=Cc1ccccc1 [Styrene],LEL,[19]; systemic / in life observation / body weight / body weight gain + systemic / in life observation / body weight / offspring (pup) weight,150 ppm
same,NEL,[19]; systemic / in life observation / body weight / body weight gain + systemic / in life observation / water consumption / water consumption,50 ppm
same,LOAEL,[19]; [23],> 500 ppm
same,NOAEL,[19]; [23],≥ 500 ppm
